From article PMC4191602 (Journal of Medicinal Chemistry, 2014)

Assays:
[1] = system: influenza A endonuclease; settings: earlier studies with phenyl substituted 3-hydroxypyridin-2(1H)-ones; cited from earlier work
[2] = target: Influenza A endonuclease (pandemic H1N1 endonuclease, residues 1–204) (Influenza A virus, UniProt C3W5S0); format: biochemical

O=c1[nH]ccc(-c2ccc(F)cc2)c1O [4-(4-fluorophenyl)-3-hydroxypyridin-2(1H)one]
activity as endonuclease inhibitor (in words) [1]: did not exhibit significant activity

O=c1[nH]cc(-c2ccc(F)cc2)[nH]c1=O [compound 1, 5-(4-Fluorophenyl)pyrazine-2,3(1H,4H)-dione]
activity as an endonuclease inhibitor (in words) [2]: comparatively weak activity | less potent than either 5- or 6-(4-fluorophenyl)-3-hydroxypyridin-2(1H)-one [2]: more than 80 times

O=c1[nH]cnc(-c2ccc(F)cc2)c1O [compound 2, 6-(4-Fluorophenyl)-5-hydroxypyrimidin-4(3H)-one]
activity as an endonuclease inhibitor (in words) [2]: lack of activity

N#Cc1cccc(-c2ncc(O)c(=O)[nH]2)c1 [compound 10, 3-(5-Hydroxy-6-oxo-1,6-dihydropyrimidin-2-yl)benzonitrile]
potency compared to the 4-cyanophenyl isomer 9 [2]: approximately twice as potent

O=c1[nH]c(-c2ccc(-c3nnn[nH]3)cc2)ncc1O [compound 11, 2-(4-(1H-Tetrazol-5-yl)phenyl)-5-hydroxypyrimidin-4(3H)-one]
potency relative to the 3-(tetrazoly)phenyl derivative 12 [2]: 3 fold

O=c1[nH]ncc(-c2ccc(F)cc2)c1O [compound 13, 5-(4-Fluorophenyl)-4-hydroxypyridazin-3(2H)-one]
activity as an endonuclease inhibitor (in words) [2]: did not exhibit significant activity
